Calls of active or inactive are those of the source. No cut-off for these calls is given here.
Tests used:
[1] = tested on: HEK293; assay: Antiproliferative activity against human HEK293 cells after 72 hrs by MTT assay; type: cell-based; details: HEK293, 72 h
[2] = Antiproliferative activity against HSF cells after 72 hrs by MTT assay; type: cell-based; details: Homo sapiens
[3] = tested on: PC-3; assay: Antiproliferative activity against human PC3 cells after 72 hrs by MTT assay; type: functional, cell-based; details: PC-3, 72 h
[4] = tested on: A498; assay: Antiproliferative activity against human A498 cells after 72 hrs by MTT assay; type: functional, cell-based; details: A498, 72 h
[5] = tested on: SNB-19; assay: Antiproliferative activity against human SNB19 cells after 72 hrs by MTT assay; type: functional, cell-based; details: SNB-19, 72 h
[6] = tested on: M14; assay: Antiproliferative activity against human M14 cells after 72 hrs by MTT assay; type: functional, cell-based; details: M14, 72 h
[7] = tested on: OVCAR-4; assay: Antiproliferative activity against human OVCAR4 cells after 72 hrs by MTT assay; type: functional, cell-based; details: OVCAR-4, 72 h
[8] = tested on: NCI-H322M; assay: Antiproliferative activity against human NCI-H322M cells after 72 hrs by MTT assay; type: functional, cell-based
[9] = tested on: HCT-15; assay: Antiproliferative activity against human HCT15 cells after 72 hrs by MTT assay; type: functional, cell-based; details: HCT-15, 72 h
[10] = tested on: HCT-116; assay: Antiproliferative activity against human HCT116 cells after 72 hrs by MTT assay; type: functional, cell-based; details: HCT-116, 72 h
[11] = tested on: MDA-MB-231; assay: Antiproliferative activity against human MDA-MB-231 cells after 72 hrs by MTT assay; type: functional, cell-based; details: MDA-MB-231, 72 h
[12] = tested on: PC-3; assay: Antiproliferative activity in human PC3 cells at 10 uM measured after 120 hrs measured each 15 mins by RTCA DP based cellular impedance analysis; type: functional
[13] = tested on: PC-3; assay: Antiproliferative activity in human PC3 cells at 0.2 to 2 uM measured during 120 hrs each 15 mins by RTCA DP based cellular impedance analysis; type: functional, cell-based
[14] = tested on: MCF7; assay: Antiproliferative activity against human MCF7 cells after 72 hrs by MTT assay; type: functional, cell-based; details: MCF7, 72 h
[15] = Selectivity index, ratio of IC50 for HSF cells to IC50 for human MCF7 cells; type: toxicity; details: HSF cells versus MCF7 cells, read-out: Ratio IC50
[16] = Ratio of compound IC50 to dehydrozingerone IC50 for antiproliferative activity against HSF cells; type: cell-based; details: human, read-out: Ratio IC50
[17] = tested on: MCF7; assay: Potency index, ratio of compound IC50 to dehydrozingerone IC50 for antiproliferative activity against human MCF7 cells; type: functional
[18] = tested on: PC-3; assay: Potency index, ratio of compound IC50 to dehydrozingerone IC50 for antiproliferative activity against human PC3 cells; type: functional
[19] = tested on: A498; assay: Potency index, ratio of compound IC50 to dehydrozingerone IC50 for antiproliferative activity against human A498 cells; type: functional
[20] = tested on: SNB-19; assay: Potency index, ratio of compound IC50 to dehydrozingerone IC50 for antiproliferative activity against human SNB19 cells; type: functional
[21] = tested on: M14; assay: Potency index, ratio of compound IC50 to dehydrozingerone IC50 for antiproliferative activity against human M14 cells; type: functional
[22] = tested on: OVCAR-4; assay: Potency index, ratio of compound IC50 to dehydrozingerone IC50 for antiproliferative activity against human OVCAR4 cells; type: functional
[23] = tested on: NCI-H322M; assay: Potency index, ratio of compound IC50 to dehydrozingerone IC50 for antiproliferative activity against human NCI-H322M cells; type: functional
[24] = tested on: HCT-15; assay: Potency index, ratio of compound IC50 to dehydrozingerone IC50 for antiproliferative activity against human HCT15 cells; type: functional
[25] = tested on: HCT-116; assay: Potency index, ratio of compound IC50 to dehydrozingerone IC50 for antiproliferative activity against human HCT116 cells; type: functional
[26] = tested on: MDA-MB-231; assay: Potency index, ratio of compound IC50 to dehydrozingerone IC50 for antiproliferative activity against human MDA-MB-231 cells; type: functional
[27] = tested on: PC-3; assay: Antimigratory activity in human PC3 cells at 0.2 uM measured during 120 hrs each 15 mins by RTCA DP based cellular impedance analysis; type: functional
[28] = tested on: PC-3; assay: Antimigratory activity in human PC3 cells at 2 uM measured during 120 hrs each 15 mins by RTCA DP based cellular impedance analysis; type: functional
[29] = tested on: PC-3; assay: Antimigratory activity in human PC3 cells at 10 uM measured during 120 hrs each 15 mins by RTCA DP based cellular impedance analysis; type: functional
[30] = tested on: PC-3; assay: Cell cycle arrest in human PC3 cells assessed as accumulation at G0/G1 phase at 2 uM after 72 hrs by RNase/propidium iodide staining-based flow cytometric analysis (reference value: 61 +/- 3%); type: functional
[31] = tested on: PC-3; assay: Cell cycle arrest in human PC3 cells assessed as accumulation at S phase at 2 uM after 72 hrs by RNase/propidium iodide staining-based flow cytometric analysis (reference value: 17 +/- 1%); type: functional
[32] = tested on: PC-3; assay: Cell cycle arrest in human PC3 cells assessed as accumulation at G2/M phase at 2 uM after 72 hrs by RNase/propidium iodide staining-based flow cytometric analysis (reference value: 20 +/- 3%); type: functional
[33] = tested on: PC-3; assay: Cell cycle arrest in human PC3 cells assessed as accumulation at G0/G1 phase at 10 uM after 72 hrs by RNase/propidium iodide staining-based flow cytometric analysis (reference value: 61 +/- 3%); type: functional
[34] = tested on: PC-3; assay: Cell cycle arrest in human PC3 cells assessed as accumulation at S phase at 10 uM after 72 hrs by RNase/propidium iodide staining-based flow cytometric analysis (reference value: 17 +/- 1%); type: functional
[35] = tested on: PC-3; assay: Cell cycle arrest in human PC3 cells assessed as accumulation at G2/M phase at 10 uM after 72 hrs by RNase/propidium iodide staining-based flow cytometric analysis (reference value: 20 +/- 3%); type: functional
[36] = Antioxidant activity assessed as ferric ion reducing activity at 20 to 320 umol after 20 mins by FRAP assay; type: functional
[37] = tested on: PC-3; assay: Induction of apoptosis in human PC3 cells assessed as necrotic cells at 10 uM after 24 hrs by Annexin V-PE/7-AAD staining-based flow cytometric analysis (reference value: 14%); type: functional
[38] = tested on: PC-3; assay: Induction of apoptosis in human PC3 cells assessed as late apoptotic cells at 10 uM after 24 hrs by Annexin V-PE/7-AAD staining-based flow cytometric analysis (reference value: 8%); type: functional
[39] = tested on: PC-3; assay: Induction of apoptosis in human PC3 cells assessed as early apoptotic cells at 10 uM after 24 hrs by Annexin V-PE/7-AAD staining-based flow cytometric analysis (reference value: 2%); type: functional
[40] = tested on: PC-3; assay: Induction of apoptosis in human PC3 cells assessed as viable cells at 10 uM after 24 hrs by Annexin V-PE/7-AAD staining-based flow cytometric analysis (reference value: 70%); type: functional; details: PC-3, 24 h, read-out: Activity
[41] = tested on: PC-3; assay: Induction of apoptosis in human PC3 cells assessed as necrotic cells at 30 uM after 24 hrs by Annexin V-PE/7-AAD staining-based flow cytometric analysis (reference value: 14%); type: functional
[42] = tested on: PC-3; assay: Induction of apoptosis in human PC3 cells assessed as late apoptotic cells at 30 uM after 24 hrs by Annexin V-PE/7-AAD staining-based flow cytometric analysis (reference value: 8%); type: functional
[43] = tested on: PC-3; assay: Induction of apoptosis in human PC3 cells assessed as early apoptotic cells at 30 uM after 24 hrs by Annexin V-PE/7-AAD staining-based flow cytometric analysis (reference value: 2%); type: functional
[44] = tested on: PC-3; assay: Induction of apoptosis in human PC3 cells assessed as viable cells at 30 uM after 24 hrs by Annexin V-PE/7-AAD staining-based flow cytometric analysis (reference value: 70%); type: functional; details: PC-3, 24 h, read-out: Activity
[45] = tested on: PC-3; assay: Induction of mitochondrial membrane potential loss in human PC3 cells assessed as fluorescence intensity at 10 uM after 24 hrs by TMRE dye-based flow cytometric analysis (reference value: 10101 +/- 853); type: functional
[46] = tested on: PC-3; assay: Induction of mitochondrial membrane potential loss in human PC3 cells assessed as fluorescence intensity at 20 uM after 24 hrs by TMRE dye-based flow cytometric analysis (reference value: 10101 +/- 853); type: functional
[47] = tested on: PC-3; assay: Induction of mitochondrial membrane potential loss in human PC3 cells assessed as fluorescence intensity at 30 uM after 24 hrs by TMRE dye-based flow cytometric analysis (reference value: 10101 +/- 853); type: functional
[48] = tested on: PC-3; assay: Induction of apoptosis in human PC3 cells assessed as intracellular ROS levels by measuring fluoresence intensity at 10 uM after 24 hrs by DCFH-DA staining-based flow cytometric analysis (reference value: 3176 +/- 398); type: functional
[49] = tested on: PC-3; assay: Induction of apoptosis in human PC3 cells assessed as intracellular ROS levels by measuring fluoresence intensity at 20 uM after 24 hrs by DCFH-DA staining-based flow cytometric analysis (reference value: 3176 +/- 398); type: functional
[50] = tested on: PC-3; assay: Induction of apoptosis in human PC3 cells assessed as intracellular ROS levels by measuring fluoresence intensity at 30 uM after 24 hrs by DCFH-DA staining-based flow cytometric analysis (reference value: 3176 +/- 398); type: functional

SMILES: COc1cccc2c1C(=O)c1c(O)c3c(c(O)c1C2=O)C[C@@](O)(C(=O)CO)C[C@@H]3O[C@H]1C[C@H](N)[C@H](O)[C@H](C)O1 [DOXORUBICIN]
- IC50 [1]: 1.2 µM
- IC50 [2]: 2.2 µM
- IC50 [3]: 0.23 µM
- IC50 [4]: 6.1 µM
- IC50 [5]: 0.15 µM
- IC50 [6]: 3.4 µM
- IC50 [7]: 0.15 µM
- IC50 [8]: 29 µM
- IC50 [9]: 2.2 µM
- IC50 [10]: 0.4 µM
- IC50 [11]: 0.3 µM

SMILES: CC(=O)/C=C/c1cnc(C)c2c1COC1(CCCCC1)O2
- inhibition at 10 µM [12]: 25%
- Activity [13]: inactive
- IC50 [14]: 1.1 µM
- IC50 [1]: 16 µM
- IC50 [2]: 15.6 µM
- IC50 [3]: 5.5 µM
- IC50 [4]: 6.5 µM
- IC50 [5]: 4.7 µM
- IC50 [6]: 2.6 µM
- IC50 [7]: 19 µM
- IC50 [8]: 4.6 µM
- IC50 [9]: 1.5 µM
- IC50 [10]: 2.8 µM
- IC50 [11]: 1.8 µM
- selectivity ratio [15]: 14.2
- selectivity ratio [16]: 7 to 211
- Ratio IC50 [17]: 7 - 211
- Ratio IC50 [18]: 7 - 211
- Ratio IC50 [19]: 7 - 211
- Ratio IC50 [20]: 7 - 211
- Ratio IC50 [21]: 7 - 211
- Ratio IC50 [22]: 7 - 211
- Ratio IC50 [23]: 7 - 211
- Ratio IC50 [24]: 7 - 211
- Ratio IC50 [25]: 7 - 211
- Ratio IC50 [26]: 7 - 211
- inhibition at 0.2 µM [27]: 11%
- inhibition at 2 µM [28]: 27%
- inhibition at 10 µM [29]: 47%
- Activity [30]: 61%
- Activity [31]: 18%
- Activity [32]: 19%
- Activity [33]: 52%
- Activity [34]: 17%
- Activity [35]: 29%
- Activity [36]: inactive
- Activity [37]: 17%
- Activity [38]: 16%
- Activity [39]: 3%
- viability at 10 µM [40]: 63%
- Activity [41]: 6%
- Activity [42]: 52%
- Activity [43]: 3%
- viability at 30 µM [44]: 39%
- Flu intensity [45]: 9999
- Flu intensity [46]: 10524
- Flu intensity [47]: 7587
- Flu intensity [48]: 3680
- Flu intensity [49]: 4486
- Flu intensity [50]: 3085

SMILES: CC(=O)/C=C/c1nc(C)c(O)c2c1COC(C)(C)OC2
- IC50 [14]: 27 µM
- IC50 [1]: 38 µM

SMILES: CCCCC1OCc2c(/C=C/C(C)=O)cnc(C)c2O1 (stereo not given)
- IC50 [14]: 1.3 µM
- IC50 [1]: 13 µM

Reference: ChEMBL document CHEMBL4261654, “Synthesis and in vitro antitumor activity of novel alkenyl derivatives of pyridoxine, bioisosteric analogs of feruloyl methane” (Bioorg Med Chem, 2018)
